#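 Step 1: Grow cells in 96-well plates. Step 2: Expose to compound for 48 hours at 5 concentrations. Step 3: Interpolate endpoints linearly; if unreached, use highest concentration. The concentration for full growth arrest is given as TGI.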
# Key:
# Assay in all cases: growth of human tumour cells (NCI), 48 h
# DLD-1 colon = test system: DLD-1 colon
# HT29 colon = test system: HT29 colon
# SF-539 CNS = test system: SF-539 CNS
# HOP-92 NSCLC = test system: HOP-92 NSCLC
# SW-620 colon = test system: SW-620 colon
# KM20L2 colon = test system: KM20L2 colon
# NCI-H226 lung = test system: NCI-H226 lung
# MOLT-4 leukemia = test system: MOLT-4 leukemia
# MCF7 breast = test system: MCF7 breast
# SK-OV-3 ovarian = test system: SK-OV-3 ovarian
# RXF 393 renal = test system: RXF 393 renal
# TK-10 renal = test system: TK-10 renal
# SR leukemia = test system: SR leukemia
# PC-3 prostate = test system: PC-3 prostate
# BT-549 breast = test system: BT-549 breast
# HS 578T breast = test system: HS 578T breast
# MDA-N = test system: MDA-N
# MDA-MB-231 breast = test system: MDA-MB-231 breast
# MDA-MB-435 = test system: MDA-MB-435
# T-47D breast = test system: T-47D breast
Compound,TGI (DLD-1 colon) [µM],TGI (HT29 colon) [µM],TGI (SF-539 CNS) [µM],TGI (HOP-92 NSCLC) [µM],TGI (SW-620 colon) [µM],TGI (KM20L2 colon) [µM],TGI (NCI-H226 lung) [µM],TGI (MOLT-4 leukemia) [µM],TGI (MCF7 breast) [µM],TGI (SK-OV-3 ovarian) [µM],TGI (RXF 393 renal) [µM],TGI (TK-10 renal) [µM],TGI (SR leukemia) [µM],TGI (PC-3 prostate) [µM],TGI (BT-549 breast) [µM],TGI (HS 578T breast) [µM],TGI (MDA-N) [µM],TGI (MDA-MB-231 breast) [µM],TGI (MDA-MB-435) [µM],TGI (T-47D breast) [µM]
CNC(=O)OCc1nc(SC)n(C)c1CO,> 100,> 100,> 100,> 100,> 100,> 100,> 100,> 100,> 100,> 100,> 100,,,,,,,,,
CC(C)(C)[Si](OC1CCOC1=O)(c1ccccc1)c1ccccc1 (stereo unspecified),> 100,32.3,72.3,> 10,> 100,35.6,,59,,> 100,,84.6,> 10,,,,,,,
COc1ccccc1/C=C/c1ccnc2ccccc12,,25.4,27.8,26.2,26.9,,29.5,28,17.5,29.7,,30.9,35.7,27.3,24.4,38.5,26.1,31.1,19.9,
COc1cc(C(=O)NC2CCc3cc(OC)c(OC)c(OC)c3-c3ccc(OC)c(=O)cc32)cc(OC)c1OC (stereo unspecified),> 100,2.29,0.0689,3.62,> 100,0.326,3.31,43.2,> 100,20.9,24,> 91.6,> 100,> 100,,> 21.1,0.0961,> 100,0.0961,> 100
Cc1c2ccccc2c(C2C3C(=O)N(c4ccc(Br)cc4)C(=O)C3ON2C(C(N)=O)c2ccccc2)c2ccccc12 (stereo unspecified),,7.35,17.7,39.4,> 100,,30,> 100,24.4,46,37.3,,,> 100,43.4,,35.1,,12.9,36.4
CC(=O)Oc1ccccc1,> 100,> 100,> 100,,> 100,> 100,> 100,> 100,,,> 100,,,,,,,,,
C[C@@H]1C[C@H]2[C@@H]3CCC4=CC(=O)C=C[C@]4(C)[C@@]3(F)[C@@H](O)C[C@]2(C)[C@@]1(O)C(=O)CO,> 100,> 100,,> 100,> 100,> 100,> 100,> 100,,> 100,,> 100,> 100,,,,,,,
Cc1ccc(O)c(Cc2nc3ccccc3nc2-c2cccc(Cl)c2)c1,,> 100,> 100,78.5,> 100,,> 100,51.4,> 100,> 100,> 100,> 100,> 100,> 100,> 100,> 100,> 100,> 100,54.9,> 100

# From PubChem BioAssay (NCI)
